Columns and labels:
GST-SMURF2-WW3 = GST-SMURF2-WW3 (Homo sapiens, UniProt Q9HAU4); assay type: binding; conditions: pH 7.4
[1] = test system: SMURF2 WW domain #3 (SMURF2-3); assay type: binding
[2] = test system: ~115 known WW domains (GST-fusion proteins); assay type: binding, mammalian

Sequence of GST-SMURF2-WW3 (Q9HAU4 297-330): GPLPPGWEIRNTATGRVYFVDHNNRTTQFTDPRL

For `CC[C@H](C)[C@H](NC(=O)[C@H](C)NC(=O)[C@H](CCC(=O)O)NC(=O)[C@H](CCSC)NC(=O)[C@H](Cc1ccc(O)cc1)NC(=O)[C@H](CCC(=O)O)NC(=O)[C@@H]1CCCN1C(=O)[C@@H]1CCCN1C(=O)[C@H](C)NC(=O)[C@@H](NC(=O)[C@@H]1CCCN1C(=O)[C@H](CC(C)C)NC(=O)[C@@H](NC(=O)[C@@H](NC(=O)[C@H](CCCNC(=N)N)NC(=O)[C@H](CCCNC(=N)N)NC(=O)[C@@H](N)CCSC)C(C)C)[C@@H](C)CC)[C@@H](C)O)C(=O)N[C@@H](CCCCNC(=O)CCCC[C@@H]1SC[C@@H]2NC(=O)N[C@@H]21)C(=O)O` [eVP40-WT peptide], the Bmax (GST-SMURF2-WW3) was 39 RU, the “interaction with SMURF2 WW domain #3 on array” value [1] was “positive interaction” and the “interaction with host WW domains on array” value [2] was “interacted with a select number of host WW domains”.

From publication PMC7918931 (Viruses, 2021)
